The subject of one data set is HIV-1 IIIB. The experiment in a line: MAGI-CXCR4 HIV-1 IIIB antiviral assay (β-galactosidase reporter). The note with it: for inhibition at 1 µM: MAGI, read-out: MAGI HIV IIIB % Inhibition at 1 uM, 1 uM compound; for T.I. (TC50/IC50): therapeutic index, MAGI assay; for MAGI HIV IIIB % Inhibition at 1 uM: 1 uM compound. The source says:
Example 2: MAGI-CXCR4 HIV-1 IIIB Assay Procedure
(§1) MAGI-CXC4 cells (obtained from the NIH AIDS Research and Reference Reagent Program) are passed into T-75 flasks prior to use in the antiviral assay. MAGI-CXCR4 cells are derived from HeLa-CD4-LTR-β-gal cells. The cells have been engineered to express high levels of CD4 and […] and contain one copy of the HIV-1 LTR promoter driving expression of the β-galactosidase gene upon HIV-1 Tat transactivation. On the day preceding the assay, the cells are plated at 1.0×10^4 per well and incubated at 37° C. overnight. Total cell and viability quantification is performed using a hemacytometer and trypan blue exclusion.
The virus used for these tests is the […](CXCR4-tropic strain HIV-1NL4-3 is also available for use). This virus was obtained from the NIH AIDS Research and Reference Reagent Program and was grown in Ghost Hi5/MAGI-CXCR4 co-cultures for the production of stock virus pools. For each assay, a pre-titered aliquot of virus is removed from the freezer (−80° C.) and allowed to thaw slowly to room temperature in a biological safety cabinet. The virus is re-suspended and diluted into tissue culture medium such that the amount of virus added to each well in a volume of […] is approximately ten TCID50/well (˜0.001 TCID50/cell).
(§2) Compounds are evaluated at one or two concentrations (e.g., for initial screening) or in dose-response at six concentrations (triplicate wells/concentration). On the day of assay setup, compound dilutions are prepared at two-times (2×) the final required concentrations. Media used for plating the cells the day before assay setup is aspirated from the plates and replaced with 50 μL of the 2× compounds, followed by the addition of 50 μL of virus, which dilutes the compounds to the final 1× concentrations. Cell control wells (cells only) and virus control wells (cells plus virus) are included on each assay plate. Identical uninfected assay plates (virus replaced with media) are prepared for parallel cytotoxicity testing. The cultures are incubated for 48 hours or 6 days (depending on compound or client requirements) after which antiviral efficacy is measured as the inhibition of β-galactosidase reporter expression and cytotoxicity is monitored by MTS staining.
A chemiluminescent endpoint is used to determine the extent of β-galactosidase expression as a measure of HIV-1 infection of the cells. Once HIV-1 has attached and entered the MAGI-CXCR4 cells, HIV-1 Tat transactivates the LTR dependent β-galactosidase enzyme to express higher than normal levels of β-galactosidase. Thus there is a direct relationship between the level of HIV-1 infection and the level of β-galactosidase detected in the cells. At 48 hours post infection, plates are aspirated and PBS is added to each well. Gal-screen reagent (Tropix, Bedford, Mass.) is then added per the manufacturer's instructions for chemiluminescent detection of β-galactosidase activity and incubated at room temperature for 90 minutes. The resulting chemiluminescence signal is then read using a Microbeta Trilux luminescence reader (PerkinElmer/Wallac).
(§3) At assay termination, the cytotoxicity assay plates are stained with the soluble tetrazolium-based dye MTS (CellTiter Reagent, Promega) to determine cell viability and quantify compound toxicity. […] At termination of the assay, 15 μL of MTS reagent is added per well. The microtiter plates are then incubated 1.5-2 hrs at 37° C.; the incubation interval was chosen based on empirically determined times for optimal dye reduction. The plates are read spectrophotometrically at 490/650 nm with a Molecular Devices Vmax plate reader. Percent inhibition of virus replication and percent cell viability at each concentration are calculated using an in-house computer program.

The next data set concerns HIV IIIB virus. As to the kind of experiment: Peripheral blood mononuclear cell HIV IIIB assay. As to conditions: for IC50: read-out: PBMC-HIV IC50; for IC90: read-out: PBMC-HIV IC90; for T.I. (TC50/IC50): therapeutic index. The procedure: (§4) To test efficacy of selected compounds, peripheral mononuclear cell assays are performed. Cells are infected for 6 days with live HIV IIIB virus and PBM cells are run in parallel for cytotoxicity testing, with or without selected agents. Efficacy of compounds as antagonists of the sdf-1 ligand to CXCR4 receptors was determined in I^125 labeled sdf-1 displacement assays from CXCR4-expressing CEM cells are performed.

Data set [1] can be described thus: in vitro. The note with it: human. As to the method:
as §1, §2, §3

Data set [2] in a line: in vitro. The note with it: human. The procedure: as §4
This is another data set of the same source.

The subject of the next data set is PBM cells. As to the kind of experiment: in vitro. As to the method:
as §4

For the next data set, the system named is MAGI-CXCR4 cells. As to the kind of experiment: in vitro. As to the method:
as §1, §2, §3

Setting [3] is: Human immunodeficiency virus 1, IIIB, MAGI-CXCR4 cells.
Where [4] appears, read: Human immunodeficiency virus 1, IIIB, read-out: HIV IC90, MAGI-CXCR4 cells, further testing.
The mark [5] stands for this setting: Human immunodeficiency virus 1, IIIB, PBMC, 144 h.
The mark [6] stands for this setting: PBMC infected 6 days with live HIV IIIB.
Where [7] appears, read: read-out: HIV IC90, MAGI-CXCR4 cells, further testing.
Setting [8] is: read-out: HIV IC50, MAGI-CXCR4 cells, further testing.

Where two headings read alike, the source gives them in different places.

As for `NCCCCN(C[C@@H]1CC(OCCCN)CN1C(=O)OCc1ccccc1)C1CCCc2cccnc21` (stereo partly drawn), the inhibition (commonly the percentage by which the read-out fell short of the control) at 1 µM in the data set with HIV-1 IIIB (setting [3]) is 0%.
In the case of `CN(C[C@@H]1CC(OCCCN)CN1C(=O)OCc1ccccc1)C1CCCc2cccnc21` (stereo partly drawn), the inhibition at 1 µM in the data set on HIV-1 IIIB (setting [3]) is 0%.
Regarding `NCCCCN(C[C@@H]1CC(OCc2ccccc2)CN1)C1CCCc2cccnc21` (stereo partly drawn), in the data set on HIV-1 IIIB (setting [3]), the inhibition at 1 µM is 0%.
On the same count and under the same terms, the result for `NCCCCN(C[C@@H]1CC(c2ccccc2)CN1)C1CCCc2cccnc21` (stereo partly drawn) reads 20%; that for `CN(CC1CN(Cc2ccccc2)CCN1)C1CCCc2cccnc21` (stereo not drawn), 41%; that for `CN(CC1Cc2ccccc2CN1)C1CCCc2cccnc21` (stereo not drawn), 30%.
`O=C1c2ccccc2C(=O)N1CCCCN(CC1Cc2ccccc2CN1)C1CCCc2cccnc21` (stereo not drawn): the inhibition at 1 µM with HIV-1 IIIB (setting [3]) came out at 25%.
Consider `c1cc(CN2CCCNCCNCCCNCC2)ccc1CN1CCCNCCNCCCNCC1` [AMD3100, reference compound], for which the IC50 (commonly the concentration that inhibits the measured activity by half) in the data set on HIV-1 IIIB (Human immunodeficiency virus 1, IIIB, read-out: HIV IC50, MAGI-CXCR4 cells, further testing) came out at 2 nM; in the data set on HIV IIIB virus (setting [5]) it was 32 nM. Moreover, the 90% effect concentration (IC90) – broadly, the concentration needed for an effect of 90% – is 7 nM in the data set on HIV-1 IIIB (setting [4]) and 134 nM in the data set with HIV IIIB virus (setting [5]). The “T.I. (TC50/IC50)” value was above 5000 in the data set with HIV-1 IIIB and above 150 in the data set with HIV IIIB virus (PBMC). The same compound yielded a CC50 in “in vitro [1]” above 10000 nM. The CC50 at 6 days in “in vitro [2]” was above 5000 nM.
For `Cc1cn([C@H]2C[C@H](N=[N+]=[N-])[C@@H](CO)O2)c(=O)[nH]c1=O` [AZT], in the data set on HIV IIIB virus (setting [6]), the concentration for half-maximal inhibition (IC50) was 4 nM and the IC90 is 70 nM. Further, the “T.I. (TC50/IC50)” value in the data set on HIV IIIB virus (PBMC) was above 240. Also, the CC50 in the data set on PBM cells is above 1000 nM.
For `NCCCCN(CC1CN(Cc2ccccc2)CCN1)C1CCCc2cccnc21` (stereo not drawn) [Compound 8], in the data set on HIV-1 IIIB (MAGI-CXCR4 cells), the “MAGI HIV IIIB % Inhibition at 1 uM” value is on record as 95%. Also, in the data set with HIV-1 IIIB (setting [7]), the concentration for an effect of 90% (IC90) amounted to 720 nM. For the same compound, the “T.I. (TC50/IC50)” value with HIV-1 IIIB is reported as above 67. The compound also yielded a CC50 in the data set on MAGI-CXCR4 cells (human) above 10000 nM.
Turning to `NCCCCN(CC1CN(Cc2ccccc2)CCN1)C1CCCc2cccnc21` (stereo not drawn) [Compound 9], the inhibition at 1 µM in the data set with HIV-1 IIIB (setting [3]) was found to be 92%. The IC90 in the data set on HIV-1 IIIB (setting [4]) was 440 nM. In addition, the IC50 with HIV-1 IIIB (setting [8]) is 30 nM; in the data set with HIV-1 IIIB (read-out: MAGI HIV IIIB IC50, MAGI-CXCR4 cells) it was 30 nM. In addition, the “T.I. (TC50/IC50)” value with HIV-1 IIIB was above 333. This compound gave a CC50 in “in vitro [1]” above 10000 nM.
Consider `Cc1ccc(-c2ccc3c(c2)C=C(C(=O)Nc2ccc(C[N+](C)(C)C4CCOCC4)cc2)CCC3)cc1` [TAK779, reference compound], for which the 50% inhibitory concentration (IC50) with HIV-1 IIIB (setting [8]) was above 10000 nM. For the same compound, in the data set with HIV-1 IIIB (setting [7]), the concentration for an effect of 90% (IC90) was above 10000 nM. In the data set with MAGI-CXCR4 cells (read-out: TC50, MTS staining, uninfected MAGI-CXCR4 cells), the CC50 is above 10000 nM.
Regarding `NCCCCN(CC1CCc2ccccc2N1)C1CCCc2cccnc21` (stereo not drawn) [drawing 40], in the data set on HIV-1 IIIB (setting [3]), the inhibition at 1 µM is 42%.
For `NCCCCN(CC1CCc2ccccc2N1)C1CCCc2cccnc21` (stereo not drawn) [drawing 41], the “MAGI HIV IIIB % Inhibition at 1 uM” value in the data set with HIV-1 IIIB (MAGI-CXCR4 cells) is reported as 31% @ 1 uM.
Take Maraviroc: in the data set on HIV IIIB virus (setting [6]), the IC50 was above 2000 nM and the IC90 is above 2000 nM.

The values are drawn from US10016408B2, “Chemokine CXCR4 receptor modulators and uses related thereto” (EMORY UNIVERSITY, priority 2010, dated 2018).
